Read-outs that look alike come from different tables or passages of the source.

Data set [1] relates to Retzius (Rz) cells in the ganglion. Briefly: Intracellular voltage recording of leech ganglion neuron with Xe flash irradiation. Type of data set: cell-based, Hirudo medicinalis. The following applies: for action potential activity on addition to saline, before irradiation: ~100 μM in saline, no light flash; for action potential activity after light flash: pulsed Xe lamp flash, UV removed by band-pass filter at 500 nm. Here is the method: Hirudo medicinalis has a central nerve cord with several ganglia, each one containing about 400 neurons arranged in a known pattern. (W.-R. Schlue et al., 1980, J. Exp. Biol., 82:23-34). An entire ganglion was mounted on a dish. The transmembrane potential for a single cell (a neuron) in the ganglion was recorded by inserting inside the neuron a glass micropipet with a micrometer-sized end, filled with saturated aqueous KCl that acts as a luggin bridge for an Ag/AgCl electrode. Another Ag/AgCl electrode was used as a reference. The signal was taken with an AM-System 1600 amplifier, and the entire setup was covered with a Faraday cage. A 12 bit A/D acquisition card was used to digitize the data using an ad-hoc program written in QuickBasic.
Low Ca^2+-high Mg^2+ saline solution (NaCl, 102 mM; KCl, 4 mM; CaCl2: 1 mM; and MgCl2: 10 mM; Tris base, pH 5.4 adjusted to 7.4) was perfused through the dish. […] A pulsed Xe lamp located under the dish was used to irradiate the solution. UV light was removed using a band-pass filter at 500 nm.
After impaling the cell with an electrode, many experiments were performed on the same cell to ensure reproducibility. […] 300 seconds later, at 5500 s, a light flash was directed to the ganglion.

Data set [2] can be described thus: Cyclic voltammetry in water, RuIII/RuII redox potential. The following applies: measured in water. The data set is classed as physicochemical. Here is the method: The supporting electrolyte was KNO3 (1 M). dE/dt=100 mV/s in glassy carbon electrode.
(§1) UV-vis spectra in water were obtained with an HP 8453 diode array spectrophotometer. RMN ^1H spectra were obtained using a Bruker 500 MHz equipment. CV measurements were performed with a PAR 273A potentiostat. Irradiation was effected by means of a pulsed Xe lamp, (pulse energy ˜0.5 J), with a low-pass filter at 480 nm. Irradiation using a 473 nm DPSS laser gave similar results.
(§2) (See, e.g., E. S. Dodsworth et al., 1986, Chem. Phys. Lett., 124:152-158). The photoactivity of these compounds has been explained in terms of a reaction pathway that involves the transition between the MLCT state to a lower-energy d-d state, which promotes ligand release. There is a direct correspondence between the energy of the MLCT transition and the quantum yield of the photoreaction. For [Ru(bpy)2(4AP)CH3CN]^2+, the photoreaction yield is about φPR=0.4. Since [Ru(bpy)2(4AP)2]Cl2 presents a red-shifted band, a lower photoreaction yield is expected. An estimate based on early experiments leads to an estimate of φPR≅0.02 at 473 nm.

Data set [3] can be described thus: 1H NMR before and after irradiation with visible light (photorelease of 4AP). The following applies: after irradiation with visible light, from NMR signal integration. The data set is classed as physicochemical. Here is the method:
as §1
Although at pH 7 the spectrum of the irradiated complex is very similar to that of the original complex, a diminished shoulder at 470 nm becomes evident. To determine the nature of the photoreaction, NMR spectra were taken before and after irradiation with visible light. […] After irradiation, this signal decreased, and two new signals appeared at lower fields: one corresponding to the free ligand (m3), and the other corresponding to the aquo-4AP complex (m2), indicating photorelease of the 4AP. These two latter signals integrated for 0.30 and 0.27 of the initial signal, which corresponds to a photoreaction of 60%.

Data set [4] can be described thus: Quantum yield of the photoreaction. The data set is classed as physicochemical.
From the text: as §2

The nature of data set [5]: UV-vis spectra of Ru(bpy)2(4AP)2 before and after photolysis; dark stability and recombination. The data set is classed as physicochemical. Here is the method:
The photoproducts after exposure to light were Ru(bpy)2(4AP)(H2O) and free 4AP.
as §1

Data set [6] is described as follows: Photorelease of TzGly by localized irradiation. Type of data set: physicochemical. Conditions: irradiation at 470 nm, light spot diameter <1 micron.
A further data set concerns mouse cortical neuron. Description: Whole-cell patch-clamp of mouse cortical neuron, perfusion of TzGly. Conditions: 1 μM. Type of data set: cell-based. The text has this: FIGS. 13A and 13B: FIG. 13A depicts the structure of TzGly. […] The measurement results were obtained by the whole-cell patch-clamp method, as known and used in the art.

As for `[Cl][Ru][Cl].c1ccc(-c2ccccn2)nc1.c1ccc(-c2ccccn2)nc1.c1ccc(-c2ccccn2)nc1` [Ru(bpy)3Cl2, reference compound], in data set [1], the “action potential activity on addition to saline, before irradiation” value is given as “without significant changes in activity”. Also, in data set [1] (~100 μM), the “action potential activity after light flash” value was “after a short time the activity decreased to the basal level”.
For the molecule [Ru(bpy)2(4AP)2]Cl2, the “action potential activity on addition to saline, before irradiation” value in data set [1] was “the activity remained unchanged”. For the same molecule, the “action potential activity after light flash” value in data set [1] (~100 μM) was “sudden activity was recorded and it remained high after 300 s”. In addition, the “action potential activity after second light pulse” value in data set [1] (~100 μM, second light pulse at 6750 s) is “an even higher activity”. In addition, the “redox potential of the couple RuIII/RuII” value in data set [2] was determined as 0.76 V versus Ag/AgCl. The “photoreaction (photorelease of 4AP)” value in data set [3] came to 60%. In addition, the “photoreaction yield φPR” value in data set [4] (at 473 nm, estimate based on early experiments) is about 0.02. The “time without dark decomposition” value in data set [5] (in the dark, UV-vis) is listed as “more than 20 hours”. For the same molecule, in data set [5] (irradiated solution after 7 hours in the dark), the 4AP recombination entry is recorded as “less than 4%”.
In the case of [Ru(bpy)2(4AP)CH3CN]^2+, in data set [4], the “photoreaction yield φPR” value was about 0.4.
Consider [Ru(bpy)2(TzGly)(py)]Cl2, for which the photorelease on irradiation result in data set [6] was “photoreleased TzGly”.
Take `NC(C(=O)O)c1nnn[nH]1` (racemic) [TzGly, (RS)-(tetrazol-5-yl)glycine]: the “neuron spiking on addition via perfusion” value with mouse cortical neuron was “spiking of a mouse cortical neuron”.

Source of the values: patent US9688708B2, “Photolabile compounds” (The Trustees of Columbia University In The City of New York, priority 2003, dated 2017).
